Results taken from patent US20090137527A1, “Compositions and methods for modulating immune function” (Resolvyx Pharmaceuticals, Inc., priority 2007, published 2009).

Tested on: rats with CIA
Test: Rat collagen-induced arthritis (CIA): paw swelling and knee histopathology
Format: in vivo
Description: Female Lewis rats were anesthetized with 3-5% isoflurane and arthritis was induced by intradermal injection of 0.3 mL (100 μL at three different sites) of an emulsion […] 1.5 mg/mL of type II bovine collagen, CII (Elastin Products Inc., Cat# CM276), in incomplete Freund's adjuvant (IFA) at the base of the tail on day 0 and 6. Control rats were injected with an equal amount of IFA only.
The volume of both hind paws were measured using a water displacement plethysmometer (Ugo Basile, Biological Research Apparatus, Italy), and the onset of arthritis was indicated by increased paw volume, which appeared approximately on day 11 post injection. Both paw volumes and body weights were measured throughout the study every 2-3 days. Nineteen to twenty-one days after CII injection, the rats were euthanized with CO2. Blood was collected by cardiac puncture and serum was saved.
were measured under two different treatment regimens. In the first (prophylactic) treatment regimen, Compound X was administered i.v., twice daily, at 0.3 mg/kg from day 0 to day 6 or 10. For ex vivo studies, animals were euthanized on day 6 after the last injection and their inguinal lymph nodes were harvested. […] For ex vivo studies, animals were euthanized on day 16 and inguinal lymph nodes were harvested. Venous blood samples were collected during the course of treatment. For CD3 activation, 96-well flat bottom plates were coated with anti-CD3 mAb (eBioscience, clone G4.18) 1 μg/mL. Plates were stored overnight at 4° C., and were subsequently rinsed with PBS once before use. Bovine Type II collagen for tissue culture was purchased from Chondrex (Cat# 2022) and was reconstituted according to the manufacturer's instructions. All data were processed and analyzed by t-test using GraphPad Prism software.
After the animals were euthanized, both hind paws and knees were removed, hind paws were weighed, and the paws and knees were placed in formalin. Following 1-2 days in fixative and 4-5 days in decalcifier, the ankle joints were cut in half longitudinally, and the knees were cut in half in the frontal plane. The joints were then processed, embedded, sectioned and stained with toluidine blue. Collagen arthritic ankles and knees were given scores of 0-5 for inflammation, pannus formation and bone resorption according to the following criteria:
1 Minimal infiltration of inflammatory cells in periarticular tissue 2 Mild infiltration 3 Moderate infiltration with moderate edema 4 Marked infiltration with marked edema 5 Severe infiltration with severe edema […]

[1] = therapeutic, twice daily i.v. 0.3 mg/kg, days 8 to 19

CC[C@@H](O)/C=C/C=C\C[C@@H](O)/C=C/C=C/C=C\[C@@H](O)CCCC(=O)O [Compound X]
paw swelling (as measured by ankle diameter) (prophylactic, twice daily i.v. 0.3 mg/kg, days 0 to 10): significant reduction | bone resorption and joint damage (therapeutic dosing): protected | knee histopathology scores: inflammation, pannus, cartilage damage, bone resorption [1]: significant reduction | mean ankle joint volume [1]: significant reduction
